Assay results as given in PubChem BioAssay AID651630 (Sanford-Burnham Center for Chemical Genomics, 2012).
Activity calls are given as the source filed them.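 The calls were made as follows: active = lipid-stain IC50 at or below a set limit, with nuclear-stain toxicity IC50 at least five times higher; inactive = the rest.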

What was measured:
[1] = tested on: DAPI; assay: triacylglycerol accumulation inhibitor potency, dose response, cell-based, panel, Nile Red and DAPI fluorescence, H9c2 (AID 651630); conditions: H9c2 cells, DAPI nuclear fluorescence (cytotoxicity counter-readout), oleic acid;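 also: cells exposed to compound overnight before fixation and staining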
[2] = tested on: TAG; assay: as above; conditions: H9c2 cells, Nile Red TAG fluorescence, oleic acid

Row | Compound | IC50 cytotoxicity (DAPI nuclear signal decrease) ([1]; mean of runs) | IC50 cytotoxicity (DAPI nuclear signal decrease) ([1]; run 1) | IC50 cytotoxicity (DAPI nuclear signal decrease) ([1]; run 2) | IC50 ([2]; mean of runs) | IC50 ([2]; run 1) | IC50 ([2]; run 2)
1 | O=C(Nc1cccc(-c2csc(Nc3cccc(C(F)(F)F)c3)n2)c1)c1cc([N+](=O)[O-])cc(C(F)(F)F)c1 | > 25 µM (inactive) | > 25 µM | > 25 µM | > 25 µM (inactive) | > 25 µM | > 25 µM
2 | CC(C)Cc1nc2sc3c(NCc4ccco4)ncnc3c2c2c1COC(C)(C)C2 | > 25 µM (inactive) | > 25 µM | > 25 µM | > 25 µM (inactive) | > 25 µM | > 25 µM
3 | CCC(C)(C)NC(=O)C(c1ccc(OC)cc1)N(CC1CCCO1)C(=O)CCC(=O)Nc1cc(C)on1 (centres undefined) | > 25 µM (inactive) | > 25 µM | > 25 µM | 7.02 µM | 8.17 µM | 5.88 µM
4 | CCOc1ccc(CCNC(=O)c2cc3sc(Cl)cc3n2C)cc1OCC | > 25 µM (inactive) | > 25 µM | > 25 µM | 5.75 µM | 7.67 µM | 3.82 µM
5 | O=C(CC1C[C@H](C(=O)N2CCCCC2)[C@@]2(CCc3ccccc3)c3[nH]c4ccccc4c3CCN2C1=O)NCc1cccc(C(F)(F)F)c1 (some centres undefined) | > 25 µM (inactive) | > 25 µM | > 25 µM | 5.34 µM | 4.84 µM | 5.84 µM
6 | Cc1[nH]c2ccccc2c1/C=N/Nc1nc(Nc2ccc(F)cc2)nc(N2CCOCC2)n1 | > 25 µM (inactive) | > 25 µM | > 25 µM | 20.6 µM (inactive) | 21.6 µM | 19.7 µM
7 | Cc1cc(N/N=C/c2cccc(Cl)c2)nc(-n2nc(C)cc2C)n1 | > 25 µM (inactive) | > 25 µM | > 25 µM | > 25 µM (inactive) | > 25 µM | > 25 µM
8 | Cc1ccc(Cn2c(C(C)Nc3nc(-c4ccc(Cl)c([N+](=O)[O-])c4)cs3)nc3cc(C(F)(F)F)ccc32)cc1 (centres undefined) |  | > 25 µM | 7.97 µM | 8.37 µM | 6.7 µM | 10 µM
9 | O=C(Nc1ccccc1)c1ccc(NCC2CCCO2)c(S(=O)(=O)N2CCOCC2)c1 (centres undefined) | > 25 µM (inactive) | > 25 µM | > 25 µM | > 25 µM (inactive) | > 25 µM | > 25 µM
10 | O=c1c2c3nc4ccccc4nc3n(/N=C/c3ccccn3)c2ncn1-c1ccccc1 |  | > 25 µM | > 25 µM | 2.48 µM | 3.37 µM | 1.59 µM
11 | COc1cccc(Nc2nnc(SCc3cc([N+](=O)[O-])cc4c3OCOC4)s2)c1 | > 25 µM (inactive) | > 25 µM | > 25 µM | > 25 µM (inactive) | > 25 µM | > 25 µM
12 | Cc1c(C#N)c(O)n(CCO)c(=O)c1N=Nc1ccc2c(c1)COC2=O | 19.9 µM (inactive) | 24.4 µM | 15.3 µM | 16.5 µM (inactive) | 14.3 µM | 18.6 µM
13 | COc1cc(NC(=O)Nc2nc(C(N)CCc3ccccc3)cs2)cc(OC)c1OC (centres undefined) | > 25 µM (inactive) | > 25 µM | > 25 µM | 6.55 µM | 5.15 µM | 7.96 µM
14 | C[C@@]12C(=O)Nc3ccc(Br)cc3C(=O)N1[C@H]1c3cc(Cl)ccc3OC[C@@H]1[C@@H]2c1ccccc1 | > 25 µM (inactive) | > 25 µM | > 25 µM | 14.6 µM | 9.4 µM | 19.8 µM
15 | CCN(CC)CCNc1nc(-n2nc(C)cc2C)nc2sc3c(c12)CC(C)(C)OC3 | > 25 µM (inactive) | > 25 µM | > 25 µM | 19.4 µM (inactive) | 16.3 µM | 22.6 µM
16 | CSc1nc(N(C)NC(=O)c2ccccc2)c2ccccc2n1 | > 25 µM (inactive) | > 25 µM | > 25 µM | 17.8 µM (inactive) | 22 µM | 13.6 µM

Row | Compound | IC50 cytotoxicity (DAPI nuclear signal decrease) ([1]; mean of runs) | IC50 cytotoxicity (DAPI nuclear signal decrease) ([1]; run 1) | IC50 cytotoxicity (DAPI nuclear signal decrease) ([1]; run 2) | IC50 ([2]; mean of runs) | IC50 ([2]; run 1) | IC50 ([2]; run 2)
17 | CN=C1c2cc3cc(OC)ccc3n2CCN1Cc1ccccc1 | > 25 µM (inactive) | > 25 µM | > 25 µM | 10.6 µM | 9.62 µM | 11.7 µM
18 | Cc1ccc2nc(NC(=O)CN(C)S(=O)(=O)c3cccc4nsnc34)sc2c1 | > 25 µM (inactive) | > 25 µM | > 25 µM | 10.5 µM | 11.1 µM | 9.95 µM
19 | C=CC[C@@H](CC(=O)N(CCO)Cc1ccccc1)C(=O)N[C@@H](COC(=O)[C@@H](CC=C)Cc1ccc(F)cc1)Cc1ccccc1 | > 25 µM (inactive) | > 25 µM | > 25 µM | 9.33 µM | 8.74 µM | 9.91 µM
20 | COc1cc(NC(=O)c2cc3cccc(OC)c3o2)cc(C(=O)Nc2cccc(C(F)(F)F)c2)c1 | > 25 µM (inactive) | > 25 µM | > 25 µM | 12 µM | 9.27 µM | 14.7 µM
21 | CCCc1cc(N2CCCC2)n2nc(C)c(-c3ccccc3)c2n1 | > 25 µM (inactive) | > 25 µM | > 25 µM | > 25 µM (inactive) | > 25 µM | > 25 µM
22 | CCOc1cc(CNC(C)(C)C)ccc1OCC(=O)Nc1cccc(C(F)(F)F)c1 | > 25 µM (inactive) | > 25 µM | > 25 µM | 16.3 µM (inactive) | 15.5 µM | 17.2 µM
23 | Cc1ccc(Sc2cc(N3CCOCC3)nc(-c3ccccc3)n2)cc1 | > 25 µM (inactive) | > 25 µM | > 25 µM | > 25 µM (inactive) | > 25 µM | > 25 µM
24 | COc1cc(C2=NOC(C(=O)NCc3cccs3)C2)cc(OC)c1OC (centres undefined) | > 25 µM (inactive) | > 25 µM | > 25 µM | 13.7 µM | 17.3 µM | 10.1 µM
25 | CC(C)(C)N1C(=O)[C@H]2[C@@H](c3ccc(Br)cc3)N3C(=O)N(c4ccc(Br)cc4)C(=O)[C@@]3(Cc3ccccc3)[C@H]2C1=O | > 25 µM (inactive) | > 25 µM | > 25 µM | 17.2 µM (inactive) | 18.3 µM | 16 µM
26 | Cc1ccc(-c2nn(-c3ccccc3)cc2CSC(=N)N)cc1 | 21 µM | 21.1 µM | 20.9 µM | 3.82 µM | 3.92 µM | 3.73 µM
27 | O=C(N/N=C/c1ccc2c(c1)OCO2)c1cc(-c2ccncc2)nc2ccccc12 | > 25 µM (inactive) | > 25 µM | > 25 µM | 14.7 µM | 16.8 µM | 12.6 µM
28 | CC(C)C[C@H]1C(=O)N2CCC[C@H]2[C@]2(O)O[C@](NC(=O)[C@@H]3C=C4c5cccc6[nH]c(Br)c(c56)CC4N(C)C3)(C(C)C)C(=O)N12 (some centres undefined) | > 25 µM (inactive) | > 25 µM | > 25 µM | 6.72 µM | 6.96 µM | 6.47 µM
29 | CCCCCc1cc(=O)oc2c(C(CCN(CC)CC)c3cc(OC)c(OC)c(OC)c3)c(OC)cc(OC)c12 (centres undefined) | > 25 µM (inactive) | > 25 µM | > 25 µM | > 25 µM (inactive) | > 25 µM | > 25 µM
30 | CCCC(=O)Nc1nc2ccc(NC(=O)c3c(F)c(F)c(OC)c(F)c3F)cc2s1 | > 25 µM (inactive) | > 25 µM | > 25 µM | 6.21 µM | 6.68 µM | 5.73 µM
31 | C[C@H]1CCCCO[C@H](CN(C)CC2CCCCC2)[C@@H](C)CN([C@@H](C)CO)C(=O)c2cc(NS(=O)(=O)c3ccccc3)ccc2O1 | > 25 µM (inactive) | > 25 µM | > 25 µM |  | 22.5 µM | > 25 µM
32 | COc1cc(C#Cc2c(-c3cncn3C)n(C)c3ccc(-c4ccc(OC)c(OC)c4)cc23)cc(OC)c1 | > 25 µM (inactive) | > 25 µM | > 25 µM | 8.76 µM | 8.47 µM | 9.05 µM
